Here are results for two compounds from patent publication US4761419A, “6-(((substituted)quinolinyl)ethyl)-and ethenyl)tetrahydro-4-hydroxypyran-2-one inhibitors of cholesterol biosynthesis” (Warner-Lambert Company, priority 1987, dated 1988).

The term IC50 denotes the concentration needed to halve the response being measured. Low readings indicate greater potency in that assay, high ones weaker potency in that assay.

This assay concerns cholesterol biosynthesis (sterol synthesis, rat liver homogenate). The assay is described as follows: CSI screen: incorporation of 14C-acetate into nonsaponifiable lipid by rat liver homogenate (inhibition of cholesterol biosynthesis). The format is biochemical. To be noted: rat liver homogenate from cholestyramine-fed rats; inhibition of sterol synthesis over a one-hour period. How it is done:
The ability of compounds of the present invention to inhibit the biosynthesis of cholesterol was measured by a method (designated CSI screen) which utilizes the procedure described by R. E. Dugan et al, Archiv. Biochem. Biophys., (1972), 152, 21-27. In this method, the level of HMG-CoA enzyme activity in standard laboratory rats is increased by feeding the rats a chow diet containing 5cholestyramine for four days, after which the rats are sacrificed.
The rat livers are homogenized, and the incorporation of 14C-acetate into nonsaponifiable lipid by the rat liver homogenate is measured. The micromolar concentration of compound required for 50inhibition of sterol synthesis over a one-hour period is measured, and expressed as an IC50 value.

Compound `CC(C)c1nc2ccc(Cl)cc2c(-c2ccc(F)cc2)c1/C=C/[C@@H]1C[C@@H](O)CC(=O)O1` (relative stereo) [[4α,6β(E)]6-[2-[6-Chloro-4-(4-fluorophenyl)-2-(1-methylethyl)-3-quinolinyl]ethenyl]tetrahydro-4-hydroxy-2H-pyran-2-one] gave an IC50 of 32 nM.
Under `Cc1nc2ccc(Cl)cc2c(-c2ccc(F)cc2)c1/C=C/[C@@H]1C[C@@H](O)CC(=O)O1` (relative stereo) [CHCH, 4-Fluorophenyl, CH3, H, Cl, H, H, [4α,6β(E)]-6[-2-[6-Chloro-4-(4-fluorophenyl)-2-methyl-3-quinolinyl]ethenyl]-tetrahydro-4-hydroxy-2H-pyran-2-one] stands 350 nM.
